In patent US10695341B2, “Compositions and methods for treating endometriosis” (UNIVERSITY OF SOUTH FLORIDA, priority 2014, dated 2020):

Assays:
[1] = system: life-extended human endometriotic cells; experiment: CellTiter-glo survival assay, life-extended human endometriotic cells, HCQ; type: cell-based; settings: 25 μM HCQ, 5 days, cells from two different types of lesions, p<0.0001
Description: Primary human endometriotic cells culture conditions and life extension have been previously described. These cells were derived from two different types of lesions (two independent patients) which were assessed separately as described below. Briefly, cells were maintained in MCDB 131:Medium 199 (1:1 ratio) supplemented with 8% FBS, penicillin/streptomycin, and insulin/transferrin/selenium (ITS). Cells were life-extended using SV40 Large T antigen. Retroviral particles generated in HEK293T were used to infect the primary cells. Media containing puromycin (2.5 μg/ml) was used to select primary cells resistant colonies. In addition, we obtained the T-HESC cell line, which are human endometrial stromal cells derived from a uterine myoma (ATCC, Manassas, Va.). This cell line was maintained in phenol red-free DMEM/F12 (1:1) containing 8% charcoal-dextran treated FBS, 500 ng/mL puromycin, 1% ITS+ Premix (BD Bioscience, San Jose, Calif.), and 15 mM HEPES. The cell lines used in the present study were tested to be mycoplasma negative and STR (short tandem repeat) profiled (Genetica DNA Laboratories, Cincinnati, Ohio). Endometriotic cells were seeded at 50,000 cells/well in a 24-well plate, whereas T-HESC cells were seeded at 250,000 cells/well in a 6-well plate. […] Cell viability was then assessed using CellTiter-glo reagent (Promega, Madison, Wis.).

[2] = system: uterine horns and ovaries; experiment: Murine tissue microarray H&E and immunohistochemistry (uterine horns, ovaries); type: in vivo, mouse
Source text: To determine whether HCQ treatment alters the histopathology (tissue organization) of the recipient's uterine horns and other tissues, a murine tissue microarray (TMA) comprised of 113 cores and performed H&E as well as immunohistochemical staining was developed. The TMA contained uterine horns and ovaries from 10 PBS- and 10 HCQ-treated mice, as well as a mammary gland, a kidney, a lymph node and a small intestine from a PBS-treated mouse for use as antibody controls. […] Estrogen receptor α (ERα) was primarily localized to the epithelial cell layer of the endometrial glands, while progesterone receptor (PR) appeared to be evenly distributed between the stromal and epithelial cell compartments. However, the PR staining was comparatively much weaker to that for ERα. […] LC3B expression appeared more intense in HCQ-treated mice relative to PBS-treated mice in both the stromal and epithelial compartments (FIGS. 19A-19X). […] Collected samples were immediately preserved in 10% neutral buffered formalin at the animal facility. Samples were embedded in paraffin, sectioned, and transferred to slides for hematoxylin/eosin and immunohistochemical staining. A pathologist reviewed each case and delimited the region of interest, containing epithelial and stromal cells, for each specimen. A mouse tissue microarray was prepared at the Tissue Core Facility at the Moffitt Cancer Center. The mouse tissue microarray contained a total of 113 core samples, which included 10 uterine horns and 10 ovaries from both PBS and HCQ treated mice. As control specimens for the utilized antibodies, the TMA included mouse mammary tissue, […], small intestine, and lymph nodes from a PBS treated mouse. Lesions were analyzed from independent blocks. Slides were stained using a Leica Bond RX automated system (Leica Biosytems, Buffalo Grove, Ill.) following manufacturers instructions with proprietary reagents. Slides were deparaffinized on an automated system with Dewax Solution (Leica Biosystems). The antigen retrieval method used for Progesterone Receptor (PR) was enzymatic with Enzyme Solution 1 at 15 min (Leica), for vimentin and Estrogen Receptor (ER) was heat induced with Epitope Retrieval Solution 1 at 20 min (Leica), for cytokeratin 8 (CK-8) was heat induced with Epitope Retrieval Solution at 10 min (Leica), and for LC3B was heat-induced with Epitope Retrieval Solution 1 at 10 min (Leica Biosystems). All antibodies were diluted in Dako antibody diluent (Carpenteria, Calif.): PR (# ab131486, 1:500, Abcam, Cambridge, Mass.), vimentin (#5741 (D21H3), 1:100, Cell Signaling, Danvers, Mass.), ERα (# ab32063 ([…]), 1:200, Abcam, Cambridge, Mass.), Cytokeratin-8 (# ab53280 (E[…]), 1:200, Abcam, Cambridge, Mass.), and LC3B (# ab51520, 1:1,500, Abcam, Cambridge, Mass.) and incubated for 30 min. The Leica Bond Polymer Refine Detection System was used with a polymer incubation for 8 min. Hematoxylin was used as counterstain and slides were dehydrated and covered with a coverslip, following standard histological protocol.

With CCN(CCO)CCCC(C)Nc1ccnc2cc(Cl)ccc12 (stereo not drawn) [HCQ, hydroxychloroquine] as the molecule, how does the “cell survival of human endometriotic cells” value [1] read?
Its value is “marked reduction”.

What about the “luminal epithelium of the uterine horn endometrium (H&E, TMA)” value ([2]; HCQ-treated mice) of the same molecule?
The value was “irregular pattern”.

What about the “intensity or localization of IHC markers in ovaries” value ([2]; HCQ-treated relative to PBS-treated mice) of the same molecule?
Its value is “no marked differences”.

And the “ERα and PR staining pattern or intensity in uterine horns” value ([2]; PBS vs HCQ-treated mice)?
Its value is “no differences”.

And the “vimentin and CK8 localization in uterine horns” value ([2]; stromal and epithelial compartments, independently of HCQ treatment)?
The value was “appropriately localized”.

What about the “LC3B expression in uterine horns (IHC)” value ([2]; stromal and epithelial compartments, relative to PBS) of the same molecule?
The value was “more intense”.
